pIC50: −log10 of the molar value.
Tested on: 885724-159-R-J1-PDC complex spheroid viability
Assay: Anticancer human tumor 885724-159-R-J1-PDC patient-derived pancreatic adenocarcinoma cell line growth inhibition [POLQ]
Details: for pIC50: curve of first compound; for viability, T/C: stronger effect = lower value
Experimental: Multicellular complex tumor spheroid response to Polymerase (POL) inhibitors (novobiocin, ART-558, RP6685) in combination with a variety of drugs and investigational agents in selected tumor cell lines
The POL inhibitors (novobiocin, ART-558, and RP6685) were evaluated both individually and in combination with standard of care and investigational anticancer small molecules within a complex spheroid model of solid tumors. . Complex spheroids include a stromal component modeled by human endothelial cells (HUVEC) and fibroblasts modeled by human mesenchymal stem cells (MSCs). The concentration ranges selected for each drug and investigational agent were based upon clinically achievable concentrations if the clinical Cmax of the agent was known.
Compounds. The drugs and investigational agents: novobiocin (NSC847541), ART-558 (NSC835418), RP-6685 (NSC848927), peposertib (NSC802822), ceralasertib (NSC780249), elimusertib (NSC800525), camonsertib (NSC841442), AZD-1390 (NSC803789), olaparib (NSC753686), talazoparib (NSC767125), rucaparib (NSC756644), sotorasib (NSC818433), MRTX-1133 (NSC836407), SN-38 (NSC673596), topotecan (NSC609699), epotoside (NSC141540), doxorubicin (NSC123127), gemcitabine (NSC613327), 5-fluorouracil (NSC19893), paclitaxel (NSC125973), vemurafenib (NSC761431), MSA-2 (NSC828583), SN-011 (NSC837082), adavosertib (NSC754352), prexasertib (NSC758257), carboplatin (NSC241240) and oxaliplatin (NSC266046), were obtained from the National Cancer Institute (NCI) Developmental Therapeutics Program Chemical Repository (21). The FDA-approved anticancer drug set is available from the Developmental Therapeutics Program at https://dtp.cancer.gov/organization/dscb/obtaining/. […] The stock solutions were prepared in dimethyl sulfoxide (DMSO, Sigma-Aldrich, St. Louis, MO, cat. D2650), except for the platinum compounds which were prepared in saline (Quality Biological, Gaithersburg, MD, cat. 114-055-101), at 800-fold the tested concentration and stored at -70 degrees C prior to their use. All drugs and investigational agents were tested over a range starting from a high concentration at or near the clinical Cmax and decreasing in half-log increments. If the clinical Cmax for an agent had not been determined, the highest concentration tested was 10 microM, except for SN-38, which was tested at a high concentration of 1 microM.
Cell Culture. All cells were maintained in an incubator at 37 degrees C and 5% CO2 with 95% humidity. The PDC lines were cultured according to standard operating procedures established by the NCI PDMR (https://pdmr.cancer.gov). Table 3 of the manuscript, lists the cell lines along with the number of the three cell types plated to form the mct-spheroids and media for tumor cell growth. After thawing, all PDC lines, except 997537-175-T-J1-PDC and 415267-285-R-J2-PDC, were cultured in Matrigel-coated flasks prepared with a working solution of 1X Ham's F-12 nutrient mix, without supplementation (Thermo Fisher Scientific, cat. 11765054), 100 U/mL penicillin-streptomycin (Thermo Fisher Scientific, cat. 15140122), and 2.5% Matrigel (Corning Inc., Corning, NY, cat. 354248) for the first three passages. The two PDC lines 997537-175-T-J1-PDC and 415267-285-R-J2-PDC were cultured on uncoated flasks. The 857933-349-R-J2-PDC line was cultured in 6C/Colon 1B media containing advanced DMEM/F-12 (Thermo Fisher Scientific, cat. 12634028), 10 mM HEPES (Thermo Fisher Scientific, cat. 15630080), 1X GlutaMAX supplement (Thermo Fisher Scientific, cat. 35050061), 0.1 mg/mL primocin (InvivoGen, San Diego, CA, cat. ant-pm-2), 10% defined fetal bovine serum, heat inactivated (HyClone Laboratories Inc., Logan, UT, cat. SH30070.03HI), 50% L-WRN conditioned media (ATCC, cat. CRL-3276), 1.25 mM N-Acetyl-L-cysteine (Sigma-Aldrich, cat. A9165), 10 mM nicotinamide (Sigma-Aldrich, cat. N0636), 1X B-27 supplement (Thermo Fisher Scientific, cat. 17504044), 1X N-2 supplement (Thermo Fisher Scientific, cat. […]

[1] = second compound 0.0316 µM, first compound 0.0316 µM
[2] = second compound 0.0316 µM, first compound 0.1 µM
[3] = second compound 0.1 µM, first compound 0.0316 µM
[4] = second compound 0.1 µM, first compound 0.1 µM
[5] = second compound 0.316 µM, first compound 0.0316 µM
[6] = second compound 0.316 µM, first compound 0.1 µM
[7] = second compound 1 µM, first compound 0.0316 µM
[8] = second compound 1 µM, first compound 0.1 µM
[9] = second compound 3.16 µM, first compound 0.0316 µM
[10] = second compound 3.16 µM, first compound 0.1 µM
[11] = second compound 10 µM, first compound 0.0316 µM
[12] = second compound 10 µM, first compound 0.1 µM
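Also: spheroids exposed to compounds for 7 days.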

## Cn1ncnc1[C@H]1c2n[nH]c(=O)c3cc(F)cc(c23)N[C@@H]1c1ccc(F)cc1 + Cc1cccc(N(C)C(=O)C2C(O)CCN2c2nc(C)cc(C(F)(F)F)c2C#N)c1
Second compound 0.0316 µM
  pIC50: < 7.00
Second compound 0.1 µM
  pIC50: < 7.00
Second compound 0.316 µM
  pIC50: < 7.00
Second compound 1 µM
  pIC50: < 7.00
Second compound 3.16 µM
  pIC50: < 7.00
Second compound 10 µM
  pIC50: < 7.00
Second compound 0.0316 µM, first compound 0.000316 µM
  viability, T/C: 97.2%
Second compound 0.0316 µM, first compound 0.001 µM
  viability, T/C: 86.9%
Second compound 0.0316 µM, first compound 0.00316 µM
  viability, T/C: 96.1%
Second compound 0.0316 µM, first compound 0.01 µM
  viability, T/C: 86.3%
[1]
  viability, T/C: 93.6%
[2]
  viability, T/C: 87.5%
Second compound 0.1 µM, first compound 0.000316 µM
  viability, T/C: 96.9%
Second compound 0.1 µM, first compound 0.001 µM
  viability, T/C: 95%
Second compound 0.1 µM, first compound 0.00316 µM
  viability, T/C: 92.9%
Second compound 0.1 µM, first compound 0.01 µM
  viability, T/C: 91.7%
[3]
  viability, T/C: 99.9%
[4]
  viability, T/C: 87.8%
Second compound 0.316 µM, first compound 0.000316 µM
  viability, T/C: 112%
Second compound 0.316 µM, first compound 0.001 µM
  viability, T/C: 97.1%
Second compound 0.316 µM, first compound 0.00316 µM
  viability, T/C: 93.2%
Second compound 0.316 µM, first compound 0.01 µM
  viability, T/C: 93.5%
[5]
  viability, T/C: 100%
[6]
  viability, T/C: 86.4%
Second compound 1 µM, first compound 0.000316 µM
  viability, T/C: 98.5%
Second compound 1 µM, first compound 0.001 µM
  viability, T/C: 101%
Second compound 1 µM, first compound 0.00316 µM
  viability, T/C: 89.2%
Second compound 1 µM, first compound 0.01 µM
  viability, T/C: 84.5%
[7]
  viability, T/C: 92.9%
[8]
  viability, T/C: 88.5%
Second compound 3.16 µM, first compound 0.000316 µM
  viability, T/C: 98.3%
Second compound 3.16 µM, first compound 0.001 µM
  viability, T/C: 101%
Second compound 3.16 µM, first compound 0.00316 µM
  viability, T/C: 86.4%
Second compound 3.16 µM, first compound 0.01 µM
  viability, T/C: 89.6%
[9]
  viability, T/C: 88.6%
[10]
  viability, T/C: 84.7%
Second compound 10 µM, first compound 0.000316 µM
  viability, T/C: 93.7%
Second compound 10 µM, first compound 0.001 µM
  viability, T/C: 95.9%
Second compound 10 µM, first compound 0.00316 µM
  viability, T/C: 98.1%
Second compound 10 µM, first compound 0.01 µM
  viability, T/C: 94.4%
[11]
  viability, T/C: 94.1%
[12]
  viability, T/C: 80%

## O=c1[nH]cc(F)c(=O)[nH]1 + Cc1cccc(N(C)C(=O)C2C(O)CCN2c2nc(C)cc(C(F)(F)F)c2C#N)c1
Second compound 0.0316 µM
  pIC50: < 5.00
Second compound 0.1 µM
  pIC50: < 5.00
Second compound 0.316 µM
  pIC50: < 5.00
Second compound 1 µM
  pIC50: < 5.00
Second compound 3.16 µM
  pIC50: < 5.00
Second compound 10 µM
  pIC50: < 5.00
[1]
  viability, T/C: 98.5%
[2]
  viability, T/C: 101%
Second compound 0.0316 µM, first compound 0.316 µM
  viability, T/C: 95.8%
Second compound 0.0316 µM, first compound 1 µM
  viability, T/C: 100%
Second compound 0.0316 µM, first compound 3.16 µM
  viability, T/C: 90.2%
Second compound 0.0316 µM, first compound 10 µM
  viability, T/C: 76.4%
[3]
  viability, T/C: 97.7%
[4]
  viability, T/C: 104%
Second compound 0.1 µM, first compound 0.316 µM
  viability, T/C: 98.7%
Second compound 0.1 µM, first compound 1 µM
  viability, T/C: 106%
Second compound 0.1 µM, first compound 3.16 µM
  viability, T/C: 90%
Second compound 0.1 µM, first compound 10 µM
  viability, T/C: 74.7%
[5]
  viability, T/C: 98.7%
[6]
  viability, T/C: 88.6%
Second compound 0.316 µM, first compound 0.316 µM
  viability, T/C: 97.5%
Second compound 0.316 µM, first compound 1 µM
  viability, T/C: 99%
Second compound 0.316 µM, first compound 3.16 µM
  viability, T/C: 87.5%
Second compound 0.316 µM, first compound 10 µM
  viability, T/C: 71.9%
[7]
  viability, T/C: 111%
[8]
  viability, T/C: 107%
Second compound 1 µM, first compound 0.316 µM
  viability, T/C: 101%
Second compound 1 µM, first compound 1 µM
  viability, T/C: 98.2%
Second compound 1 µM, first compound 3.16 µM
  viability, T/C: 92%
Second compound 1 µM, first compound 10 µM
  viability, T/C: 76.7%
[9]
  viability, T/C: 114%
[10]
  viability, T/C: 96.2%
Second compound 3.16 µM, first compound 0.316 µM
  viability, T/C: 88%
Second compound 3.16 µM, first compound 1 µM
  viability, T/C: 100%
Second compound 3.16 µM, first compound 3.16 µM
  viability, T/C: 87.3%
Second compound 3.16 µM, first compound 10 µM
  viability, T/C: 71.7%
[11]
  viability, T/C: 99%
[12]
  viability, T/C: 101%
Second compound 10 µM, first compound 0.316 µM
  viability, T/C: 89.8%
Second compound 10 µM, first compound 1 µM
  viability, T/C: 89.4%
Second compound 10 µM, first compound 3.16 µM
  viability, T/C: 92.9%
Second compound 10 µM, first compound 10 µM
  viability, T/C: 78.6%

— PubChem BioAssay AID1963832 (Molecular Pharmacology Branch, DTP, NCI, 2024)
